Reference: ChEMBL document CHEMBL3885881, “DrugMatrix”

Species on record: Rattus norvegicus
Experiment: DrugMatrix - Regimen: Daily Repeat
Format: toxicity, organism-based, Sprague-Dawley
Design: regimen Daily Repeat, gender Male, age 6-8 weeks
Conditions: in vivo, po, route oral GAVAGE, vehicle .5 % CMC; for ABSOLUTE BASOPHIL / ABSOLUTE EOSINOPHIL / ABSOLUTE LYMPHOCYTE / ABSOLUTE MONOCYTE / ABSOLUTE SEGMENTED NEUTROPHIL / BASOPHIL / EOSINOPHIL / ERYTHROCYTE COUNT / HEMATOCRIT / HEMOGLOBIN / LEUKOCYTE COUNT / LYMPHOCYTE / MEAN CORPUSCULAR HEMOGLOBIN / MEAN CORPUSCULAR HEMOGLOBIN CONCENTRATION / MEAN CORPUSCULAR VOLUME / MONOCYTE / NEUTROPHIL / NUCLEATED RED BLOOD CELLS / PLATELET COUNT: tissue Blood; for ALANINE AMINOTRANSFERASE / ALBUMIN / ALKALINE PHOSPHATASE / ASPARTATE AMINOTRANSFERASE / BLOOD UREA NITROGEN / CARBON DIOXIDE / CHLORIDE / CHOLESTEROL / CREATINE PHOSPHOKINASE / CREATININE / GLUCOSE / LACTATE DEHYDROGENASE / LIPASE / PHOSPHORUS / POTASSIUM / SODIUM / TOTAL BILIRUBIN / TOTAL PROTEIN / URIC ACID: tissue Plasma
[1] = 25 mg/kg, 72 h, dose level Low, time 3 day
[2] = 25 mg/kg, 120 h, dose level Low, time 5 day
[3] = 1500 mg/kg, 72 h, dose level High, time 3 day
[4] = 1500 mg/kg, 120 h, dose level High, time 5 day

Structure (SMILES): Cc1ccc(S(=O)(=O)NC(=O)NN2CCCCCC2)cc1 [TOLAZAMIDE]
- ABSOLUTE BASOPHIL [1]: 0 CELLS/uL
- ABSOLUTE EOSINOPHIL [1]: 281.67 CELLS/uL
- ABSOLUTE LYMPHOCYTE [1]: 14664 CELLS/uL
- ABSOLUTE MONOCYTE [1]: 321 CELLS/uL
- ABSOLUTE SEGMENTED NEUTROPHIL [1]: 2033.33 CELLS/uL
- BASOPHIL [1]: 0%
- EOSINOPHIL [1]: 1.67%
- ERYTHROCYTE COUNT [1]: 5.23 x10E6/uL
- HEMATOCRIT [1]: 32.97%
- HEMOGLOBIN [1]: 12.7 G/DL
- LEUKOCYTE COUNT [1]: 17.3 x10E3/uL
- LYMPHOCYTE [1]: 85%
- MEAN CORPUSCULAR HEMOGLOBIN [1]: 24.27 pg
- MEAN CORPUSCULAR HEMOGLOBIN CONCENTRATION [1]: 38.53 G/DL
- MEAN CORPUSCULAR VOLUME [1]: 63 fL
- MONOCYTE [1]: 2%
- NEUTROPHIL [1]: 11.33%
- NUCLEATED RED BLOOD CELLS [1]: 0 /100WBC
- PLATELET COUNT [1]: 1363.33 x10E3/uL
- ALANINE AMINOTRANSFERASE [1]: 47.33 u/L
- ALBUMIN [1]: 4.3 G/DL
- ALKALINE PHOSPHATASE [1]: 373.67 u/L
- ASPARTATE AMINOTRANSFERASE [1]: 73.33 u/L
- BLOOD UREA NITROGEN [1]: 13.33 mg/dL
- CARBON DIOXIDE [1]: 22 mmol/L
- CHLORIDE [1]: 102.33 MEQ/L
- CHOLESTEROL [1]: 62.67 mg/dL
- CREATINE PHOSPHOKINASE [1]: 209.33 u/L
- CREATININE [1]: 0.17 mg/dL
- GLUCOSE [1]: 152.33 mg/dL
- LACTATE DEHYDROGENASE [1]: 265 u/L
- LIPASE [1]: 9 u/L
- PHOSPHORUS [1]: 13.13 mg/dL
- POTASSIUM [1]: 7.02 MEQ/L
- SODIUM [1]: 143.5 MEQ/L
- TOTAL BILIRUBIN [1]: 0.17 mg/dL
- TOTAL PROTEIN [1]: 5.3 G/DL
- URIC ACID [1]: 1.97 mg/dL
- ABSOLUTE BASOPHIL [2]: 0 CELLS/uL
- ABSOLUTE EOSINOPHIL [2]: 87.33 CELLS/uL
- ABSOLUTE LYMPHOCYTE [2]: 13745 CELLS/uL
- ABSOLUTE MONOCYTE [2]: 575.67 CELLS/uL
- ABSOLUTE SEGMENTED NEUTROPHIL [2]: 1458.67 CELLS/uL
- BASOPHIL [2]: 0%
- EOSINOPHIL [2]: 0.67%
- ERYTHROCYTE COUNT [2]: 6.16 x10E6/uL
- HEMATOCRIT [2]: 38.13%
- HEMOGLOBIN [2]: 13.9 G/DL
- LEUKOCYTE COUNT [2]: 15.87 x10E3/uL
- LYMPHOCYTE [2]: 86.67%
- MEAN CORPUSCULAR HEMOGLOBIN [2]: 22.6 pg
- MEAN CORPUSCULAR HEMOGLOBIN CONCENTRATION [2]: 36.47 G/DL
- MEAN CORPUSCULAR VOLUME [2]: 61.93 fL
- MONOCYTE [2]: 3.67%
- NEUTROPHIL [2]: 9%
- NUCLEATED RED BLOOD CELLS [2]: 0 /100WBC
- PLATELET COUNT [2]: 1264.67 x10E3/uL
- ALANINE AMINOTRANSFERASE [2]: 46.67 u/L
- ALBUMIN [2]: 4.3 G/DL
- ALKALINE PHOSPHATASE [2]: 296.33 u/L
- ASPARTATE AMINOTRANSFERASE [2]: 92.67 u/L
- BLOOD UREA NITROGEN [2]: 17.33 mg/dL
- CARBON DIOXIDE [2]: 23.67 mmol/L
- CHLORIDE [2]: 109.33 MEQ/L
- CHOLESTEROL [2]: 61.67 mg/dL
- CREATINE PHOSPHOKINASE [2]: 320 u/L
- CREATININE [2]: 0.19 mg/dL
- GLUCOSE [2]: 152.33 mg/dL
- LACTATE DEHYDROGENASE [2]: 425.33 u/L
- LIPASE [2]: 9 u/L
- PHOSPHORUS [2]: 11.2 mg/dL
- POTASSIUM [2]: 5.71 MEQ/L
- SODIUM [2]: 148.83 MEQ/L
- TOTAL BILIRUBIN [2]: 0.17 mg/dL
- TOTAL PROTEIN [2]: 6.13 G/DL
- URIC ACID [2]: 1.27 mg/dL
- ABSOLUTE BASOPHIL [3]: 0 CELLS/uL
- ABSOLUTE EOSINOPHIL [3]: 0 CELLS/uL
- ABSOLUTE LYMPHOCYTE [3]: 13270.33 CELLS/uL
- ABSOLUTE MONOCYTE [3]: 328.33 CELLS/uL
- ABSOLUTE SEGMENTED NEUTROPHIL [3]: 801.33 CELLS/uL
- BASOPHIL [3]: 0%
- EOSINOPHIL [3]: 0%
- ERYTHROCYTE COUNT [3]: 5.57 x10E6/uL
- HEMATOCRIT [3]: 35.93%
- HEMOGLOBIN [3]: 13.3 G/DL
- LEUKOCYTE COUNT [3]: 14.4 x10E3/uL
- LYMPHOCYTE [3]: 92%
- MEAN CORPUSCULAR HEMOGLOBIN [3]: 23.9 pg
- MEAN CORPUSCULAR HEMOGLOBIN CONCENTRATION [3]: 37.03 G/DL
- MEAN CORPUSCULAR VOLUME [3]: 64.5 fL
- MONOCYTE [3]: 2.33%
- NEUTROPHIL [3]: 5.67%
- NUCLEATED RED BLOOD CELLS [3]: 0 /100WBC
- PLATELET COUNT [3]: 1235.33 x10E3/uL
- ALANINE AMINOTRANSFERASE [3]: 26.33 u/L
- ALBUMIN [3]: 4.3 G/DL
- ALKALINE PHOSPHATASE [3]: 233.33 u/L
- ASPARTATE AMINOTRANSFERASE [3]: 69 u/L
- BLOOD UREA NITROGEN [3]: 17.67 mg/dL
- CARBON DIOXIDE [3]: 25 mmol/L
- CHLORIDE [3]: 106.33 MEQ/L
- CHOLESTEROL [3]: 46.67 mg/dL
- CREATINE PHOSPHOKINASE [3]: 172 u/L
- CREATININE [3]: 0.18 mg/dL
- GLUCOSE [3]: 142 mg/dL
- LACTATE DEHYDROGENASE [3]: 80.67 u/L
- LIPASE [3]: 8 u/L
- PHOSPHORUS [3]: 9.5 mg/dL
- POTASSIUM [3]: 5.38 MEQ/L
- SODIUM [3]: 145.4 MEQ/L
- TOTAL BILIRUBIN [3]: 0.27 mg/dL
- TOTAL PROTEIN [3]: 5.8 G/DL
- URIC ACID [3]: 1.07 mg/dL
- ABSOLUTE BASOPHIL [4]: 0 CELLS/uL
- ABSOLUTE EOSINOPHIL [4]: 47.67 CELLS/uL
- ABSOLUTE LYMPHOCYTE [4]: 13177.33 CELLS/uL
- ABSOLUTE MONOCYTE [4]: 515.33 CELLS/uL
- ABSOLUTE SEGMENTED NEUTROPHIL [4]: 1493 CELLS/uL
- BASOPHIL [4]: 0%
- EOSINOPHIL [4]: 0.33%
- ERYTHROCYTE COUNT [4]: 6.17 x10E6/uL
- HEMATOCRIT [4]: 38.2%
- HEMOGLOBIN [4]: 14.3 G/DL
- LEUKOCYTE COUNT [4]: 15.23 x10E3/uL
- LYMPHOCYTE [4]: 86.67%
- MEAN CORPUSCULAR HEMOGLOBIN [4]: 23.2 pg
- MEAN CORPUSCULAR HEMOGLOBIN CONCENTRATION [4]: 37.47 G/DL
- MEAN CORPUSCULAR VOLUME [4]: 61.93 fL
- MONOCYTE [4]: 3.33%
- NEUTROPHIL [4]: 9.67%
- NUCLEATED RED BLOOD CELLS [4]: 0 /100WBC
- PLATELET COUNT [4]: 1206.33 x10E3/uL
- ALANINE AMINOTRANSFERASE [4]: 28 u/L
- ALBUMIN [4]: 4.7 G/DL
- ALKALINE PHOSPHATASE [4]: 319.67 u/L
- ASPARTATE AMINOTRANSFERASE [4]: 70.67 u/L
- BLOOD UREA NITROGEN [4]: 19 mg/dL
- CARBON DIOXIDE [4]: 25.33 mmol/L
- CHLORIDE [4]: 105.33 MEQ/L
- CHOLESTEROL [4]: 58.33 mg/dL
- CREATINE PHOSPHOKINASE [4]: 168.67 u/L
- CREATININE [4]: 0.2 mg/dL
- GLUCOSE [4]: 138.67 mg/dL
- LACTATE DEHYDROGENASE [4]: 114 u/L
- LIPASE [4]: 9.33 u/L
- PHOSPHORUS [4]: 13.07 mg/dL
- POTASSIUM [4]: 6.1 MEQ/L
- SODIUM [4]: 149.93 MEQ/L
- TOTAL BILIRUBIN [4]: 0.2 mg/dL
- TOTAL PROTEIN [4]: 6.57 G/DL
- URIC ACID [4]: 2.17 mg/dL
